Assay results: patent US20100210553A1, “USE OF THE PEPTIDE ASN-ASP-ASP-CYS-GLU- LEU-CYS-VAL-ASN-VAL-ALA-CYS-THR-GLY-CYS-LEU ALONE OR IN COMBINATION WITH THE PEPTIDE THR-THR-SER-GLN-VAL- ARG-PRO-ARG AS A THERAPEUTIC AGENT” (priority 2007, published 2010)
Ends that are not written are not given here.

Assays:
[1] = tested on: hepatitis B virus (HBV) ayw strain; assay: HBV experimental assay system (HepG2-2.2.15, TaqMan PCR of secreted HBV DNA); type: cell-based; conditions: 10 micrograms per ml; HepG2-2.2.15, six days; combination 0.95 mole peptide 1 and 1.05 mole peptide 2
Description: HepG2-2.2.15 is a stable cell line containing the hepatitis B virus (HBV) ayw strain genome (ATCC Cat. No. CRL-11997). Antiviral compounds blocking any late step of viral replication such as transcription, translation, pregenome encapsidation, reverse transcription, particle assembly and release can be identified and characterized using this cell line. In this assay, an active compound will reduce the production of secreted HBV from cells, measured by utilizing real time quantitative PCR (TaqMan) assay to directly and accurately measure HBV DNA copies.
HepG2-2.2.15 cells were plated in 96-well microtiter plates. After 16-24 hours the confluent monolayer of HepG2-2.2.15 cells was washed and the medium was replaced with complete medium containing test peptides—10 micrograms per ml—in duplicate. […] Six days following the initial administration of the peptides, the cell culture supernatants was collected, treated with pronase and DNAse and then used in a real-time quantitative TaqMan PCR assay. The PCR-amplified HBV DNA was detected in real-time by monitoring increases in fluorescence signals that result from the exonucleolytic degradation of a quenched fluorescence probe molecule that hybridizes to the amplified HBV DNA. […] Antiviral activity was calculated from the reduction in HBV DNA levels (% virus control). […]

Streptococcus pneumoniae = Streptococcus pneumoniae assay; type: cell-based; conditions: 10 micrograms per ml; 5x10^5 CFU/mL, read visually; combination 0.95 mole peptide 1 and 1.05 mole peptide 2 and all other molar ratios from 1:100 to 100:1
murine spleen cells = assay: Th1/Th2 cytokine profiling assay (Ovalbumin-restimulated spleen cells, CBA Kit); type: cell-based, mouse; conditions: 10 micrograms per ml, Ovalbumin restimulation, 72 hours, combination 0.95 mole peptide 1 and 1.05 mole peptide 2
[2] = tested on: Primary Human endothelial cells (HUVEC); assay: Endothelial cell migration assay; type: cell-based; conditions: 10 micrograms per ml, 22 hours
HUVEC = assay: Endothelial tube formation assay; type: cell-based, human; conditions: 10 micrograms per ml, 20 hours
Protocol: The endothelial tube formation assay is based on the ability of endothelial cells to form three-dimensional capillary-like tubular structures when cultured on a gel of basement membrane extract. The endothelial tube formation assay represents a powerful model for studying inhibition and induction of angiogenesis. Pre-labeled HUVEC with Calcein AM were seeded in a 96-well culture plate coated with extracellular metrix (Chemicon international Cat. ECM625) and treated with—10 micrograms per ml—test peptides in full growth medium. Positive control was vehicle only. The endothelial cells were allowed to form tubes for 20 hours and were then examined under an inverted fluorescent microscope. Duplicate wells for each treatment were photographed and quantitatively analyzed for an average tubule length using image analysis software ImageProPlus. Raw data were expressed as average tubule lengths in pixels ±standard deviation. Statistic p values were computed using the Student's t-test.

HCMV strain AD169 = assay: HCMV plaque formation assay in MRC-5 cells; conditions: 10 micrograms per ml, 7-10 days

Substance | inhibition of HBV replication as compared to the virus control infection [1] | inhibition of the growth of Streptococcus pneumoniae (Streptococcus pneumoniae) [%] | change of the production of IL-5 (murine spleen cells) | induction of the production of IFN-γ (murine spleen cells) [%] | induction of the production of IL-2 (murine spleen cells) [%] | induction of the production of IL-4 (murine spleen cells) [%] | induction of the production of TNF-alpha (murine spleen cells) [%] | inhibition of the migration of human endothelial cells [2] [%] | inhibition of the tube formation of human endothelial cells (HUVEC) [%] | inhibition of HCMV plaque formation as compared to the virus control experiment (HCMV strain AD169)
Asn-Asp-Asp-Cys-Glu-Leu-Cys-Val-Asn-Val-Ala-Cys-Thr-Gly-Cys-Leu-OH (NDDCELCVNVACTGCL-OH; cysteine pairing not given here) [Peptide 1] | no effect | 100 | did not significantly change | 80.8 | 66.9 | 143.8 | 57.1 | 14 | 18 | did not inhibit
Thr-Thr-Ser-Gln-Val-Arg-Pro-Arg-OH (TTSQVRPR-OH) [Peptide 2] | 31% | 100 | did not significantly change | 47.4 | 24 | 103.9 | 43.7 | 13 | 24 | did not inhibit
